According to ChEMBL document CHEMBL6092192 (J Med Chem, 2024):
Activity calls are given as the source filed them. No cut-off for these calls is given here.

Experiments:
[1] = Reversal of paclitaxel resistance in HEK293 cells transfected with pcDNA3.1 assessed as reversal fold by measuring ratio of paclitaxel IC50 to paclitaxel IC50 in presence of test compound at 2 uM incubated for 72 hrs by MTT assay; assay type: functional, Homo sapiens
[2] = target: T1, ATP-dependent translocase ABCB1 (Homo sapiens, UniProt P08183); assay: Activation of ABCB1 ATPase activity (unknown origin) infected in insect cells at 18.5 uM incubated for 20 mins in presence of Mg-ATP by spectrophotometric analysis; assay type: cell-based; conditions: insect cell
T1 sequence (P08183 whole entry): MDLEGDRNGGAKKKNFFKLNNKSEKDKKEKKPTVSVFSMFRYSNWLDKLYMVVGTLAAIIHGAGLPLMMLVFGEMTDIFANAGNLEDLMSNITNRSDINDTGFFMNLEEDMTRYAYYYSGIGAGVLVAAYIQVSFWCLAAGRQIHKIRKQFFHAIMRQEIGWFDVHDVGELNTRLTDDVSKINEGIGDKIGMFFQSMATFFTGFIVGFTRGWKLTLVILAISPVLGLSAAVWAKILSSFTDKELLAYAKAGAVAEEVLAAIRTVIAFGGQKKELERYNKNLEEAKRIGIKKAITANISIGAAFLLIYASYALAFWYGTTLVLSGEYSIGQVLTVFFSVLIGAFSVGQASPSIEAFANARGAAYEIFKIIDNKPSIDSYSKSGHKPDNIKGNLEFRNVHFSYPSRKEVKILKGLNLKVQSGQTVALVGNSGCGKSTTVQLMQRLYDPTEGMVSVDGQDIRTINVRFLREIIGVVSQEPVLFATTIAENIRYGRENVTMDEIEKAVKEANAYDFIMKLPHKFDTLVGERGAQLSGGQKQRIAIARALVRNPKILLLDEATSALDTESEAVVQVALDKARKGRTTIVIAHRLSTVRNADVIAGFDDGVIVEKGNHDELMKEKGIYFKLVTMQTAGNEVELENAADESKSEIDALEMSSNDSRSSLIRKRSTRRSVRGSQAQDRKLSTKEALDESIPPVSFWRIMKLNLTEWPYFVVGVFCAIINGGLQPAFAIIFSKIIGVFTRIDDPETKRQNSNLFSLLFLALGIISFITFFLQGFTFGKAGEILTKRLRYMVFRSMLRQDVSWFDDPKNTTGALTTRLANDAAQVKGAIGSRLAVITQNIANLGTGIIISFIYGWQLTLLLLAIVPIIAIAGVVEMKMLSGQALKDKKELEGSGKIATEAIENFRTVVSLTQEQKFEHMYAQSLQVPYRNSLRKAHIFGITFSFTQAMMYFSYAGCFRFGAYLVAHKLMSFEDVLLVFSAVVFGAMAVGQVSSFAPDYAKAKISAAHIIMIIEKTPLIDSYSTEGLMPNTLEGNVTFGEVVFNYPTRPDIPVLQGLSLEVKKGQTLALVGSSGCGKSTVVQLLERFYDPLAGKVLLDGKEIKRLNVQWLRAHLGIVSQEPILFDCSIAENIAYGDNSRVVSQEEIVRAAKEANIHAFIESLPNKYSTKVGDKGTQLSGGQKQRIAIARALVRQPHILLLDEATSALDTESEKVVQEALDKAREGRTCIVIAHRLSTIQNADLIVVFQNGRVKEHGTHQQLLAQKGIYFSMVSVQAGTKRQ

[3] = AUC (0 to infinity) in 12 hrs fasted Sprague-Dawley rat at 10 mg/kg, po measured upto 720 mins by HPLC-MS/MS analysis; assay type: ADME, organism-based; conditions: in vivo
HEK293 [4] = assay: Cytotoxicity against HEK293 cells harbouring ABCB1 assessed as survival rate at 2 uM measured after 72 hrs by MTT assay relative to control; assay type: functional; conditions: Homo sapiens, read-out: Survival
[5] = Half life in 12 hrs fasted Sprague-Dawley rat at 1 mg/kg, iv measured upto 720 mins by HPLC-MS/MS analysis; assay type: ADME, organism-based; conditions: in vivo
[6] = Toxicity in BALB/c nude mouse xenografted with […] CT26/TAXOL cells assessed as effect on brain at 100 mg/kg/day, IG in presence of paclitaxel/anti-PD-1 measured after 14 days by H and E staining based analysis; assay type: organism-based; conditions: in vivo, po, 336 h, time 14 day
[7] = Toxicity in BALB/c nude mouse xenografted with […] CT26/TAXOL cells assessed as effect on lung at 100 mg/kg/day, IG in presence of paclitaxel/anti-PD-1 measured after 14 days by H and E staining based analysis; assay type: organism-based; conditions: in vivo, po, 336 h, time 14 day
[8] = Tmax in 12 hrs fasted Sprague-Dawley rat at 1 mg/kg, iv measured upto 720 mins by HPLC-MS/MS analysis; assay type: ADME, organism-based; conditions: in vivo
HEK293 [9] = assay: Cytotoxicity against HEK293 cells transfected with pcDNA3.1 assessed as survival rate at 2 uM measured after 72 hrs by MTT assay relative to control; assay type: functional; conditions: Homo sapiens, read-out: Survival
SW-620 [10] = assay: Reversal of paclitaxel resistance in human SW620 cells assessed as reversal fold by measuring ratio of paclitaxel IC50 to paclitaxel IC50 in presence of test compound at 2 uM incubated for 72 hrs by MTT assay; assay type: functional
[11] = Toxicity in BALB/c nude mouse assessed as change in body weight at 100 mg/kg/day, IG measured after 21 days in presence of paclitaxel; assay type: organism-based; conditions: in vivo, po, 504 h, time 21 day
KB-C2 = assay: Cytotoxicity against human KB-C2 cells assessed as survival rate at 5 uM measured after 72 hrs by MTT assay relative to control; assay type: functional; conditions: read-out: Survival
[12] = MRT (0 to t) in 12 hrs fasted Sprague-Dawley rat at 10 mg/kg, po measured upto 720 mins by HPLC-MS/MS analysis; assay type: ADME, organism-based; conditions: in vivo
[13] = Toxicity in BALB/c nude mouse xenografted with […] CT26/TAXOL cells assessed as effect on spleen at 100 mg/kg/day, IG in presence of paclitaxel measured after 14 days by H and E staining based analysis; assay type: organism-based; conditions: in vivo, po, 336 h, time 14 day
hERG (KCNH2) = hERG (KCNH2) (Homo sapiens, UniProt Q12809); assay: Inhibition of human ERG expressed in CHO cells at 40 uM by QPatch assay relative to control; assay type: toxicity, cell-based; conditions: CHO cells expressing human ERG
Sequence of hERG (KCNH2) (Q12809 whole entry): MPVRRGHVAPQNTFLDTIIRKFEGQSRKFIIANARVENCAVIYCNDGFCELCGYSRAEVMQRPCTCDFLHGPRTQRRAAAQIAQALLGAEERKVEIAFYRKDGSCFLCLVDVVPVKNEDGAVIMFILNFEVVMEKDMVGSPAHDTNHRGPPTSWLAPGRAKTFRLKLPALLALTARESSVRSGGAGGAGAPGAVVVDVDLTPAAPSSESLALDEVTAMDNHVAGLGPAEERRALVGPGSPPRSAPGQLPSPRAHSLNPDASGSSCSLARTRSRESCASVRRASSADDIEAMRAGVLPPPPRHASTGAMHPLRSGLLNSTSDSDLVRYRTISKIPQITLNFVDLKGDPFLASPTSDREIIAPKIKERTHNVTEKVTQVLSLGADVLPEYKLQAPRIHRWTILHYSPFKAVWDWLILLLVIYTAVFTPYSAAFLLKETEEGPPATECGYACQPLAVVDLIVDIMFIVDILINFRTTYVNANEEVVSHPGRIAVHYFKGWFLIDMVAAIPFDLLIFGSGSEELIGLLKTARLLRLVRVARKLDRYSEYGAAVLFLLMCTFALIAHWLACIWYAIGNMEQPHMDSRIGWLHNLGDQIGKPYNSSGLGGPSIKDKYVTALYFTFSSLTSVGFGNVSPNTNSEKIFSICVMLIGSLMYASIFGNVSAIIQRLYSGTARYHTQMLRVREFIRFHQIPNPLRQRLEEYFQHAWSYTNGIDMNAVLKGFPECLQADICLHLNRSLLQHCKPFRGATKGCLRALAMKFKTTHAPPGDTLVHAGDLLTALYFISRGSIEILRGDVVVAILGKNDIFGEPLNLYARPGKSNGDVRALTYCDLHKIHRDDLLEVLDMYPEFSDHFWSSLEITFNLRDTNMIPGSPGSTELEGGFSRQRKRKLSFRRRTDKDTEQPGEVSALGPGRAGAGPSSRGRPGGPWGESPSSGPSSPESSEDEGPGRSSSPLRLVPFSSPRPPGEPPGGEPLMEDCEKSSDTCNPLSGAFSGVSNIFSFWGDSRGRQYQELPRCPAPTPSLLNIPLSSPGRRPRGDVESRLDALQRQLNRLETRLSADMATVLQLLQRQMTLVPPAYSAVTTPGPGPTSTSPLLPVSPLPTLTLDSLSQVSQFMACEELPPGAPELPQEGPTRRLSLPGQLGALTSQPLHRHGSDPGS

[14] = Toxicity in BALB/c nude mouse xenografted with […] CT26/TAXOL cells assessed as mortality at 100 mg/kg/day, IG measured upto 14 days in presence of paclitaxel; assay type: organism-based; conditions: in vivo, po, 336 h, time < 14 day
SW620/AD300 = assay: Reversal of paclitaxel resistance in human SW620/AD300 cells assessed as reversal fold by measuring ratio of paclitaxel IC50 to paclitaxel IC50 in presence of test compound at 4 uM incubated for 72 hrs by MTT assay; assay type: functional
[15] = target: T1, ATP-dependent translocase ABCB1; assay: Induction of thermal stabilization of ABCB1 in human SW620/AD300 cells at 200 uM measured after 30 mins by thermal shift assay; assay type: cell-based; conditions: sw620/ad300, 0.5 h
[16] = Toxicity in BALB/c nude mouse xenografted with […] CT26/TAXOL cells assessed as effect on spleen at 100 mg/kg/day, IG in presence of paclitaxel/anti-PD-1 measured after 14 days by H and E staining based analysis; assay type: organism-based; conditions: in vivo, po, 336 h, time 14 day
[17] = AUC (0 to t) in 12 hrs fasted Sprague-Dawley rat at 10 mg/kg, po measured upto 720 mins by HPLC-MS/MS analysis; assay type: ADME, organism-based; conditions: in vivo
[18] = Reversal of paclitaxel resistance in HEK293 cells harbouring ABCB1 assessed as reversal fold by measuring ratio of paclitaxel IC50 to paclitaxel IC50 in presence of test compound at 2 uM incubated for 72 hrs by MTT assay; assay type: functional, Homo sapiens
CD8-positive T cell = assay: Activation of immune response in human CD8-positive T cell assessed as increase in granzyme level at 4 uM by ELISA method; assay type: functional, cell-based
[19] = Toxicity in Sprague-Dawley rat assessed as fatality at 250 to 1000 mg/kg, po measured for 14 days administered as single dose; assay type: organism-based; conditions: in vivo, 336 h, dose 250-1000 mg/kg, time 14 day
[20] = Toxicity in BALB/c nude mouse xenografted with […] CT26/TAXOL cells assessed as mortality at 100 mg/kg/day, IG measured upto 14 days in presence of paclitaxel/anti-PD-1; assay type: organism-based; conditions: in vivo, po, 336 h, time < 14 day
[21] = Toxicity in BALB/c nude mouse xenografted with […] CT26/TAXOL cells assessed as effect on heart at 100 mg/kg/day, IG in presence of paclitaxel/anti-PD-1 measured after 14 days by H and E staining based analysis; assay type: organism-based; conditions: in vivo, po, 336 h, time 14 day
[22] = Toxicity in BALB/c nude mouse assessed as mortality at 100 mg/kg/day, IG measured after 21 days in presence of paclitaxel; assay type: organism-based; conditions: in vivo, po, 504 h, time 21 day
[23] = Toxicity in BALB/c nude mouse xenografted with […] CT26/TAXOL cells assessed as effect on heart at 100 mg/kg/day, IG in presence of paclitaxel measured after 14 days by H and E staining based analysis; assay type: organism-based; conditions: in vivo, po, 336 h, time 14 day
SW-620 [24] = assay: Cytotoxicity against human SW620 cells assessed as survival rate at 2 uM measured after 72 hrs by MTT assay relative to control; assay type: functional; conditions: read-out: Survival
[25] = MRT (0 to infinity) in 12 hrs fasted Sprague-Dawley rat at 10 mg/kg, po measured upto 720 mins by HPLC-MS/MS analysis; assay type: ADME, organism-based; conditions: in vivo
[26] = Toxicity in BALB/c nude mouse xenografted with […] CT26/TAXOL cells assessed as effect on spleen at 100 mg/kg/day, IG measured after 14 days by H and E staining based analysis; assay type: organism-based; conditions: in vivo, po, 336 h, time 14 day
[27] = target: T1, ATP-dependent translocase ABCB1; assay: Activation of ABCB1 ATPase activity (unknown origin) infected in insect cells by measuring fold change at upto 40 uM incubated for 20 mins in presence of Mg-ATP by spectrophotometric analysis; conditions: Insect cell, read-out: FC
[28] = Reversal of paclitaxel resistance in HEK293 cells harbouring ABCB1 assessed as reversal fold by measuring ratio of paclitaxel IC50 to paclitaxel IC50 in presence of test compound at 4 uM incubated for 72 hrs by MTT assay; assay type: functional, Homo sapiens

## O=c1c2c([nH]c3nc(SCc4nc5ccccc5s4)nn13)CCC2
[1]
  Ratio IC50: 10.9
[2]
  Activity: Active
[3]
  AUC(0-inf): 5840 ng·h/mL
HEK293 [4]
  viability at 2 µM: 98.2%
[5]
  half-life: 5.37 h
[6]
  Activity: Non-toxic
[7]
  Activity: Non-toxic
[8]
  Tmax: 4.98 min
HEK293 [9]
  viability at 2 µM: 97.8%
SW-620 [10]
  Ratio IC50: 1.01
[11]
  Activity: Non-toxic
KB-C2
  viability at 5 µM: 94.4%
[12]
  MRT last at 12 h: 6.87 h
[13]
  Activity: Non-toxic
hERG (KCNH2)
  inhibition at 40 µM: 32%
[14]
  Activity: Non-toxic
SW620/AD300
  Ratio IC50: 730.33
[15]
  Activity: Active
[16]
  Activity: Non-toxic
[17]
  AUC(0-t) at 12 h: 5740 ng·h/mL
[18]
  Ratio IC50: 7.82
CD8-positive T cell
  Activity: Active
[19]
  Activity: Non-toxic
[20]
  Activity: Non-toxic
[21]
  Activity: Non-toxic
[22]
  Activity: Non-toxic
[23]
  Activity: Non-toxic
SW-620 [24]
  viability at 2 µM: 95.9%
[25]
  MRT inf: 7.24 h
[26]
  Activity: Non-toxic
[27]
  fold induction at up to 40 µM: 2.5
[28]
  Ratio IC50: 28.25
